Reference: patent US10449208B2, “Antiviral prodrugs of tenofovir” (Merck Sharp & Dohme Corp., priority 2016, dated 2019)
pIC50: −log10 of the molar value. Read-outs that look alike come from different tables or passages of the source.

Experiments:
[1] = test system: HIV-1 (H9/IIIB strain); assay: Multiple round HIV-1 infection assay (Viking assay) in MT4-GFP cells; format: cell-based; details: Human immunodeficiency virus 1, IIIB, MT4-GFP cells infected with HIV-1 H9/IIIB, inhibition of reproductive ratio R0
Method in brief: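 MT4-gag-GFP cells infected overnight with HIV-1 H9/IIIB at MOI ~0.01, then incubated with compound (10-point 3-fold dilutions, typically 8.4 μM–0.42 nM) in RPMI with 10% or 50% normal human serum. Green cells counted at ~48 and ~72 h; IC50 from inhibition of reproductive ratio R0, 4-parameter fit.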

[2] = Prodrug stability assay in bio-relevant media (FaSSIF with Pancreatin, simulated gastrointestinal tract conditions); format: in vitro ADME; details: % parent prodrug remaining at 5 h vs 0 h, 37° C., 0.5 mg/mL Pancreatin in FaSSIF, HPLC area ratio
Experimental: Prodrug Stability Assay in Bio-Relevant Media
The following assay was employed to evaluate the stability of the prodrugs in simulated gastrointestinal tract conditions. Preparation of fasted state simulated intestinal fluid (FaSSIF) using Phares SIF Powder was carried out according to protocols from Phare Drug Delivery AG (Baselland, Switzerland). For sample preparation, 10 μL stock solutions (10 mM) of prodrug substance in DMSO was added to 990 μL of 0.5 mg/mL Pancreatin solution (Fisher CAS#8049-47-6) in FaSSIF. Two samples were prepared for each compound at initial. If the sample was clear solution at the beginning, ran one sample directly as initial by HPLC; if the sample was not clear at starting, diluted the sample by 100% ACN. Put the other sample under 37° C. and observed the sample at 5 h time-point. At 5 h time point, if the sample was clear solution then performed HPLC analysis directly; if it was not clear solution, diluted the sample by 100% ACN and assayed by HPLC. All the samples were vortexed for 3 min and observed before injection. For the diluted samples, the area will be multiplied by a factor when data analysis. The analysis was carried out with an Agilent 1100 series HPLC with autosampler. The column was usually a Poroshell 120 EC -C18, 4.6×50 mm, 2.7 μm. The flow rate was 1.8 mL/min, and the injection volume was 5 or 10 μL. UV detection was in the range 210-400 nm. The mobile phase consisted of solvent A (water plus 10 mM tetrabutylammonium bromide) and solvent B (acetonitrile) with a gradient of 90% solvent A at 0 min changing to 95% solvent B over 6 min, maintained for 1.5 min, then reverting to 90% solvent A over 1.6 min. The area of the parent in prodrug at 5h time point was divided by the area of the parent in prodrug at 0 h time point, to generate the % claimed parent ratio, which are summarized in Table 2 for GI Tract stability.

[3] = 10% normal human serum, read-out: Viking, IC50 (10% NHS)
[4] = 50% normal human serum, read-out: Viking, IC50 (50% NHS)

GI Tract stability [2] [%] | Compound | pIC50 [1, 3] | pIC50 [1, 4]
93.55 | CC(C)OC(=O)[C@H](C)OP(=O)(CO[C@H](C)Cn1cnc2c(N)ncnc21)NC1(C(=O)OC(C)C)CC1 (stereo partly drawn) [Example 47, Isopropyl 1-((((((R)-1-(6-amino-9H-purin-9-yl)propan-2-yl)oxy)methyl)(((S)-1-isopropoxy-1-oxopropan-2-yl)oxy)phosphoryl)amino) cyclopropane-1-carboxylate] | 7.04 | 6.68
100.50 | CC(C)OC(=O)COP(=O)(CO[C@H](C)Cn1cnc2c(N)ncnc21)NC1(C(=O)OC(C)C)CCC1 (stereo partly drawn) [Example 49, Isopropyl 1-((((((R)-1-(6-amino-9H-purin-9-yl)propan-2-yl)oxy)methyl)(2-isopropoxy-2-oxoethoxy)phosphoryl)amino) cyclobutane-1-carboxylate] | 7.71 | 7.43
99.70 | CC(C)OC(=O)COP(=O)(CO[C@H](C)Cn1cnc2c(N)ncnc21)NC1(C(=O)OC(C)C)CCCCC1 (stereo partly drawn) [Example 51, Isopropyl 1-((((((R)-1-(6-amino-9H-purin-9-yl)propan-2-yl)oxy)methyl)(2-isopropoxy-2-oxoethoxy)phosphoryl)amino) cyclohexane-1-carboxylate] | 8.01 | 7.60
